Test results as given in US20040191171A1, “Method of detecting skin stimulation effect” (priority 2001, published 2004).
One block for each compound: values may come before it.

Columns and labels:
Assay type in all cases: cell-based
P2X receptor = assay: Intracellular calcium ion concentration in cultured epidermal keratinocytes (Fluo3-AM fluorescence), P2X agonist/inhibitor; settings: FIG. 2; for concentration of intracellular calcium ions in the keratinocytes: agonist solution (final concentration 10 μM) added to epidermal keratinocytes
Description: (a) Commercially available epidermal keratinocytes (product of Kurabo Industries Ltd.) were subjected to culture by means of a customary method by use of a KGM medium which had been prepared through the following procedure: MCDB153IK (product of Kyokuto Pharmaceutical Industrial Co., Ltd.) (10.93 g), N-2-hydroxyethylpiperazine-N′-2-ethanesulphonic acid (HEPES) (6.7 g), NaHCO3 (1.2 g), insulin (5 mg), hydrocortisone (0.5 mg), transferrin (10 mg), phosphorylethanolamine (14.1 mg), EGF (10 μg), penicillin (100 mg), and kanamycin (60 mg) were dissolved in purified water (1 L); the pH of the resultant solution was adjusted to 7.4 by use of NaOH; the resultant solution was subjected to filter sterilization; and bovine pituitary gland extract (product of Kyokuto Pharmaceutical Industrial Co., Ltd.) (55 mg) was added to the resultant solution immediately before use of the solution. On the day before measurement of calcium ions was carried out, the thus-cultured epidermal keratinocytes were inoculated into a 96-well plate (2×10^5 cells/well). On the following day, the aforementioned culture solution was removed from the well plate by use of a pipette such that the cells were not exfoliated from the wells. Subsequently, a balanced salt solution (BSS: an aqueous solution prepared by dissolving NaCl (150 mM), KCl (5 mM), CaCl2 (1.8 mM), NaH2PO4 (1.2 mM), MgCl2 (1.2 mM), D-glucose (10 mM), and HEPES (25 mM) in water, and adjusting the pH of the resultant solution to 7.4 by use of NaOH) and Fluo3-AM (product of Dainippon Pharmaceutical Co., Ltd.), which is a calcium-sensitive fluorescent dye, were added to the cultured epidermal keratinocytes (total amount of BSS and Fluo3-AM per well: […]), and incubation was carried out at 37° C. for 60 minutes, to thereby introduce the fluorescent dye into the cultured epidermal keratinocytes. […]
(§1) The fluorescence intensity was measured over time by means of a customary method by use of a fluorescence microplate reader (485 nm, 538 nm).
(§2) The concentration of intracellular calcium ions in the cells was calculated by use of the following formula. […]

VR1 receptor = target: T1, VR1 receptor (Homo sapiens, UniProt Q8NER1); assay: Intracellular calcium ion concentration in cultured epidermal keratinocytes (Fluo3-AM fluorescence), VR1 agonist/antagonist
T1 construct: epidermal keratinocytes were brought into contact with capsaicin, which is an agonist of a VR1 receptor; host or cells: cultured epidermal keratinocytes
T1 sequence (Q8NER1 whole entry): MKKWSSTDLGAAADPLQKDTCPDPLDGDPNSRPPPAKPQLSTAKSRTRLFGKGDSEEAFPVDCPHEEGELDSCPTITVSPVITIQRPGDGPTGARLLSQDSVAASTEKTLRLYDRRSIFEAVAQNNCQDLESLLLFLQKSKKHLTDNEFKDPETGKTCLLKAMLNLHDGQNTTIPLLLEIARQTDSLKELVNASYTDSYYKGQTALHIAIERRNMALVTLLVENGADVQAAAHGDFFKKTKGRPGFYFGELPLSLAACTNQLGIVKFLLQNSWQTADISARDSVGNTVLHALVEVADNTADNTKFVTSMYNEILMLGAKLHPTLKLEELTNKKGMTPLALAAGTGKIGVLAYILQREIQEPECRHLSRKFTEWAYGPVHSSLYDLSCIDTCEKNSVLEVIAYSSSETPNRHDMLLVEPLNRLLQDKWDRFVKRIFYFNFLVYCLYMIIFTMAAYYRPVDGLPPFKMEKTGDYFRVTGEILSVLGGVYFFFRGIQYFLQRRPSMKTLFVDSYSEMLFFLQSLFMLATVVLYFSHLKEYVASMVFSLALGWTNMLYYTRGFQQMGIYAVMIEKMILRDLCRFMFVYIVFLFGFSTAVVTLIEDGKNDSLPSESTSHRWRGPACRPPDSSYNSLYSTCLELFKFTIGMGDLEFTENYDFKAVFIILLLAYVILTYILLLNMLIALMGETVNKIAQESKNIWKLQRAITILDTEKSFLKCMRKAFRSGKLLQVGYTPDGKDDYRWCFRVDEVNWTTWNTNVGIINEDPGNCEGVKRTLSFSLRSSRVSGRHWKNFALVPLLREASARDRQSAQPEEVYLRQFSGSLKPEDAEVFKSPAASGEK
Description: (§3) (a) Commercially available epidermal keratinocytes (product of Kurabo Industries Ltd.) were subjected to culture by means of a customary method by use of a KGM medium which had been prepared through the following procedure: MCDB153IK (product of Kyokuto Pharmaceutical Industrial Co., Ltd.) (10.93 g), N-2-hydroxyethylpiperazine-N′-2-ethanesulphonic acid (HEPES) (6.7 g), NaHCO3 (1.2 g), insulin (5 mg), hydrocortisone (0.5 mg), transferrin (10 mg), phosphorylethanolamine (14.1 mg), EGF (10 μg), penicillin (100 mg), and kanamycin (60 mg) were dissolved in purified water (1 L); the pH of the resultant solution was adjusted to 7.4 by use of NaOH; the resultant solution was subjected to filter sterilization; and bovine pituitary gland extract (product of Kyokuto Pharmaceutical Industrial Co., Ltd.) (55 mg) was added to the resultant solution immediately before use of the solution. On the day before measurement of calcium ions was carried out, the thus-cultured epidermal keratinocytes were inoculated into a 96-well plate (2×10^5 cells/well). […]
as §1, §2

epidermal keratinocytes = assay: Intracellular calcium ion concentration in epidermal keratinocytes after adding pain-producing substances; settings: lactic acid present (mM range), two seconds after addition of the solution; FIG. 4
Description: as §3, with “solution.” for “solution. On the day before measurement of calcium ions was carried out, the thus-cultured epidermal keratinocytes were inoculated into a 96-well plate (2×10^5 cells/well).”
as §1, §2
Fmin: Fluorescence intensity of Fluo3-AM when EDTA is added and Ca^2+ is blocked (minimum fluorescence intensity)
Fmax: Fluorescence intensity of Fluo3-AM in the presence of excess Ca^2+ (breakage of cell membranes by a surfactant) (maximum fluorescence intensity) […]

Compound: 2′,3′-o-(2,4,6-trinitrophenyl)adenosine 5′-triphosphate [TNP-ATP]
increase in the concentration of intracellular calcium ions caused by αβ-me ATP (P2X receptor; keratinocytes preliminarily treated with TNP-ATP (100 nM) for 10 minutes, then mixture of TNP-ATP and αβ-me ATP added): suppressed

Compound: Nc1ncnc2c1ncn2[C@@H]1O[C@H](COP(=O)(O)OP(=O)(O)OP(=O)(O)O)[C@@H](O)[C@H]1O [ATP, adenosine 5′-triphosphate]
concentration of intracellular calcium ions in the keratinocytes (P2X receptor): significantly increased

concentration of intracellular calcium ions in the keratinocytes (VR1 receptor; capsaicin solution (final concentration 100 nM to 10 μM) added to epidermal keratinocytes, FIG. 1A): significantly increased
Compound: COc1cc(CNC(=O)CCCC/C=C/C(C)C)ccc1O [capsaicin]

increase in the concentration of intracellular calcium ions caused by capsaicin (VR1 receptor; keratinocytes preliminarily treated with capsazepine for 10 minutes, then mixture of capsaicin and capsazepine added, FIG. 1B): suppressed
Compound: Oc1cc2c(cc1O)CN(C(=S)NCCc1ccc(Cl)cc1)CCC2 [capsazepine]

Compound: CC(O)C(=O)O (stereo not drawn) [lactic acid]
concentration of intracellular calcium ions in the epidermal keratinocytes (epidermal keratinocytes): increased

concentration of intracellular calcium ions in the keratinocytes (P2X receptor): significantly increased
Compound: Nc1ncnc2c1ncn2[C@@H]1O[C@H](COP(=O)(O)CP(=O)(O)OP(=O)(O)O)[C@@H](O)[C@H]1O [αβ-me ATP, αβ-methelene ATP]
